{"source": "paper PMC4109836", "about": "“Analysis of the co-operative interaction between the allosterically regulated proteins GK and GKRP using tryptophan fluorescence” (Biochemical Journal, 2014)", "molecules": {"B1": {"name": "GKRP-WT: recombinant human wild-type GK regulatory protein (protein)", "chain": "MPGTKRFQHVIETPEPGKWELSGYEAAVPITEKSNPLTQDLDKADAENIVRLLGQCDAEIFQEEGQALSTYQRLYSESILTTMVQVAGKVQEVLKEPDGGLVVLSGGGTSGRMAFLMSVSFNQLMKGLGQKPLYTYLIAGGDRSVVASREGTEDSALHGIEELKKVAAGKKRVIVIGISVGLSAPFVAGQMDCCMNNTAVFLPVLVGFNPVSMARNDPIEDWSSTFRQVAERMQKMQEKQKAFVLNPAIGPEGLSGSSRMKGGSATKILLETLLLAAHKTVDQGIAASQRCLLEILRTFERAHQVTYSQSPKIATLMKSVSTSLEKKGHVYLVGWQTLGIIAIMDGVECIHTFGADFRDVRGFLIGDHSDMFNQKAELTNQGPQFTFSQEDFLTSILPSLTEIDTVVFIFTLDDNLTEVQTIVEQVKEKTNHIQALAHSTVGQTLPIPLKKLFPSIISITWPLLFFEYEGNFIQKFQRELSTKWVLNTVSTGAHVLLGKILQNHMLDLRISNSKLFWRALAMLQRFSGQSKARCIESLLRAIHFPQPLSDDIRAAPISCHVQVAHEKEQVIPIALLSLLFRCSITEAQAHLAAAPSVCEAVRSALAGPGQKRTADPLEILEPDVQ", "modifications": "left off: FLAG, end not stated, state not stated", "notes": "recombinant human wild-type GK regulatory protein"}, "B2": {"name": "GKRP-P446L: recombinant human GKRP variant P446L (protein)", "chain": "B1 chain with P446L", "modifications": "left off: FLAG, end not stated, state not stated"}}, "key": {"subjects with T2D": {"tested_on": "subjects with T2D", "parameters": "method as in PMID 21994424", "conditions": "cited from earlier work"}, "GK-W99R/W167F/W257F": {"molecular_target": "T1, GK-W99R/W167F/W257F (Homo sapiens, UniProt P35557, W167F/W257F/W99R)", "T1 construct": "GST (cleaved yes); made in house; host or cells: Escherichia coli", "T1 sequence (P35557 1-465 W99R/W167F/W257F)": "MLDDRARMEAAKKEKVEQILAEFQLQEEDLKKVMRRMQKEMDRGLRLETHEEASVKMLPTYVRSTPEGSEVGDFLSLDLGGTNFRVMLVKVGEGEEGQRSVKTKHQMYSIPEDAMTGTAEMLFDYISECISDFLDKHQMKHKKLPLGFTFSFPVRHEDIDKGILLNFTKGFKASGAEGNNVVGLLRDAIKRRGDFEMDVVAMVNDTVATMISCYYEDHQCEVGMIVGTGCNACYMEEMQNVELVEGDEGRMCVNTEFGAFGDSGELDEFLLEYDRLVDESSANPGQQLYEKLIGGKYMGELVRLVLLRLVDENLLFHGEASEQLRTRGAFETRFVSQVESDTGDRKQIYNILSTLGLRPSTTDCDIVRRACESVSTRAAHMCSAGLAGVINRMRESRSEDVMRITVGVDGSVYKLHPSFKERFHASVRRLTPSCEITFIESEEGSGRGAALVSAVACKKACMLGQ", "parameters": "method as in ref 4 (a number printed in a supplementary file, which may have a reference list of its own: not looked up in the article's list)", "conditions": "read-out: ATP Km; cited from earlier work"}, "GK-WT [1]": {"molecular_target": "T2, GK-WT (Homo sapiens, UniProt P35557)", "T2 construct": "GST (cleaved yes); made in house; host or cells: Escherichia coli", "T2 sequence (P35557 1-465)": "T1 sequence (P35557 1-465 W99R/W167F/W257F) with R99W, F167W, F257W", "parameters": "method as in ref 4 (a number printed in a supplementary file, which may have a reference list of its own: not looked up in the article's list)", "conditions": "read-out: ATP Km; cited from earlier work"}, "GK-WT [2]": {"molecular_target": "T2, GK-WT", "parameters": "method as in ref 18 (a number printed in a supplementary file, which may have a reference list of its own: not looked up in the article's list)", "conditions": "read-out: Kd for MH, cited from earlier work"}, "[3]": {"molecular_target": "T3, hGKRP (0.3 μM)–GK-W99R/W167F/W257F (1 μM) complex, GKRP-WT (Homo sapiens, UniProt P35557+Q14397, W167F/W257F/W99R)", "T3 construct": "FLAG; GST (cleaved yes); made in house; host or cells: Escherichia coli", "T3 sequence (Q14397 1-625)": "B1 chain", "T3 sequence (P35557 1-465 W99R/W167F/W257F)": "T1 sequence (P35557 1-465 W99R/W167F/W257F)", "experiment": "Ligand binding by / disassembly of GKRP-WT–GK-W99R/W167F/W257F complex by TF of hGKRP", "conditions": "ligand titration of 3:1 GK–GKRP-WT complex, 20°C", "description": "(§1) Spectra were measured with a Fluorolog-3-21 Jobin-Yvon Spex Instrument SA equipped with a 450 W Xenon lamp for excitation and a cooled R2658P Hamamatsu photomultiplier tube for detection. For all measurements, 90° geometry was employed and 295 nm excitation wavelengths were used to observe fluorescence emission in the 300–500 nm range. For TF, spectra slit width was set to provide a bandpath of 3 nm for excitation and 3 nm for emission. Spectra were corrected for instrumental response using Spex instrument software. A thermostatically controlled cell holder maintained sample temperature at 20°C. A thermocoupler was used to measure sample temperature. The buffer used contained 20 mM phosphate, 50 mM KCl, 1 mM EDTA and 1 mM DTT (pH 7.2).\n(§2) Fluorescence data were obtained via the stepwise addition of the appropriate amount of non-fluorescent GK-W99R/W167F/W257F to GKRP in a fluorescence cuvette. […] The change in GKRP protein fluorescence during titration was also measured using time-dependent scans. A manual procedure was used such that a typical titration with 10–12 additions required 20–25 min to perform. The same buffer as described above was routinely used unless stated otherwise. The bandpath was 0.5 nm at 295 nm for excitation and 12 nm at 340 nm for emission. […] For some graphical presentations the linear form of the Hill equation was used: log[F/(Fsat−F)]=H log x−H log KD [46]."}, "GKRP-P446L [4]": {"molecular_target": "T4, GKRP-P446L (Homo sapiens, UniProt Q14397, P446L)", "T4 construct": "FLAG; made in house; host or cells: Escherichia coli", "T4 sequence (Q14397 1-625 P446L)": "B1 chain with P446L", "experiment": "Ligand binding to free GKRP-P446L measured by TF of GKRP", "conditions": "ligand alone; for H (Hill number) / ΔF (relative fluorescence change at 340 nm) / Kd: 0.3 μM GKRP-P446L, 20°C; for Kd: read-out: S0.5"}, "[5]": {"molecular_target": "T5, hGKRP (0.3 μM)–GK-W99R/W167F/W257F (1 μM) complex, GKRP-P446L (Homo sapiens, UniProt P35557+Q14397, P446L/W167F/W257F/W99R)", "T5 construct": "FLAG; GST (cleaved yes); made in house; host or cells: Escherichia coli", "T5 sequence (Q14397 1-625 P446L)": "B1 chain with P446L", "T5 sequence (P35557 1-465 W99R/W167F/W257F)": "T1 sequence (P35557 1-465 W99R/W167F/W257F)", "experiment": "Ligand binding by / disassembly of GKRP-P446L–GK-W99R/W167F/W257F complex by TF of hGKRP", "conditions": "ligand titration of 3:1 GK–GKRP-P446L complex, 20°C", "description": "as §1, §2"}, "GKRP-WT [6]": {"molecular_target": "T6, GKRP-WT (Homo sapiens, UniProt Q14397)", "T6 construct": "FLAG; made in house; host or cells: Escherichia coli", "T6 sequence (Q14397 1-625)": "B1 chain", "experiment": "Ligand binding to free GKRP-WT measured by TF of GKRP", "conditions": "ligand alone; for H (Hill number) / ΔF (relative fluorescence change at 340 nm) / Kd: 0.3 μM GKRP-WT, 20°C; for Kd: read-out: S0.5"}, "GKRP-WT [7]": {"molecular_target": "T7, GKRP-WT (Homo sapiens, UniProt P35557+Q14397, W167F/W257F/W99R)", "T7 construct": "FLAG; GST (cleaved yes); made in house; host or cells: Escherichia coli", "T7 sequence (Q14397 1-625)": "B1 chain", "T7 sequence (P35557 1-465 W99R/W167F/W257F)": "T1 sequence (P35557 1-465 W99R/W167F/W257F)", "experiment": "Titration of GKRP-WT with GK-W99R/W167F/W257F (GK–GKRP complex assembly) by TF", "format": "binding", "conditions": "saturating levels of F6P"}, "GKRP-P446L [8]": {"molecular_target": "T8, GKRP-P446L (Homo sapiens, UniProt P35557+Q14397, P446L/W167F/W257F/W99R)", "T8 construct": "FLAG; GST (cleaved yes); made in house; host or cells: Escherichia coli", "T8 sequence (Q14397 1-625 P446L)": "B1 chain with P446L", "T8 sequence (P35557 1-465 W99R/W167F/W257F)": "T1 sequence (P35557 1-465 W99R/W167F/W257F)", "experiment": "Titration of GKRP-P446L with GK-W99R/W167F/W257F (GK–GKRP complex assembly) by TF", "format": "binding", "conditions": "saturating levels of F6P", "description": "as §1, §2"}, "[9]": {"experiment": "Structural stability from urea denaturation curves (TF)", "format": "physicochemical, human", "conditions": "buffer pH 7.2, 20°C; ±0.05"}}, "note": "Substitutions are numbered along the chain they refer to. In names and notes the source's numbering stands. Like-named read-outs stand apart in the source and are kept apart here."}
{"molecule": "CCS(=O)(=O)c1ccc(Oc2cc(O[C@@H](C)CO)cc(C(=O)Nc3ccn(C)n3)c2)cn1", "note": "[MK0941]", "values": [{"measurement": "clinical effect, higher doses", "setting": "subjects with T2D; higher doses of the drug", "value": "fast-onset transient effects associated with an increase in blood lipids and cardiovascular side effects"}, {"measurement": "clinical effect, low dose", "setting": "subjects with T2D; low dose of the drug", "value": "slow-onset long-lasting beneficial effect"}]}
{"molecule": "Nc1ncnc2c1ncn2[C@@H]1O[C@H](COP(=O)(O)OP(=O)(O)OP(=O)(O)O)[C@@H](O)[C@H]1O", "note": "[ATP]", "values": [{"measurement": "Km", "setting": "GK-W99R/W167F/W257F", "value": 1960, "unit": "µM"}, {"measurement": "Km", "setting": "GK-WT [1]", "value": 490, "unit": "µM"}]}
{"molecule": "O=C(CO)[C@@H](O)[C@@H](O)[C@H](O)[C@H](O)CO", "note": "[MH, D-mannoheptulose]", "values": [{"measurement": "Kd", "setting": "GK-WT [2]; in the presence of GKA (20 μM)", "value": 1000, "unit": "µM"}, {"measurement": "Kd", "setting": "GK-WT [2]; without GKA", "value": 17000, "unit": "µM"}]}
{"molecule": "O=C(COP(=O)([O-])[O-])[C@@H](O)[C@H](O)[C@H](O)CO.[Na+].[Na+]", "note": "[F1P, D-fructose 1-phosphate sodium salt]", "values": [{"measurement": "H", "setting": "[3]", "value": 1}, {"measurement": "ΔF (relative fluorescence change at 340 nm)", "setting": "[3]", "value": "−0.086"}, {"measurement": "Kd", "setting": "[3]; read-out: Kd (apparent)", "value": 127, "unit": "µM"}, {"measurement": "H (Hill number)", "setting": "GKRP-P446L [4]", "value": 1}, {"measurement": "ΔF (relative fluorescence change at 340 nm)", "setting": "GKRP-P446L [4]", "value": "−0.08"}, {"measurement": "Kd", "setting": "GKRP-P446L [4]", "value": 139, "unit": "µM"}, {"measurement": "effect on the TF signal of GKRP-P446L", "setting": "GKRP-P446L [4]", "value": "decrease"}, {"measurement": "H", "setting": "[5]", "value": 1}, {"measurement": "ΔF (relative fluorescence change at 340 nm)", "setting": "[5]; glucose curve biphasic (two phases)", "value": "−0.095"}, {"measurement": "Kd", "setting": "[5]; read-out: Kd (apparent)", "value": 298, "unit": "µM"}, {"measurement": "H (Hill number)", "setting": "GKRP-WT [6]", "value": 1}, {"measurement": "ΔF (relative fluorescence change at 340 nm)", "setting": "GKRP-WT [6]", "value": "−0.04"}, {"measurement": "Kd", "setting": "GKRP-WT [6]", "value": 65, "unit": "µM"}, {"measurement": "effect on the TF signal of GKRP-WT", "setting": "GKRP-WT [6]", "value": "decrease"}]}
{"molecule": "O=C(CO)[C@@H](O)[C@H](O)[C@H](O)COP(=O)([O-])[O-].[Na+].[Na+]", "note": "[F6P, D-fructose 6-phosphate disodium salt]", "values": [{"measurement": "H (Hill number)", "setting": "GKRP-P446L [4]", "value": 2.94}, {"measurement": "ΔF (relative fluorescence change at 340 nm)", "setting": "GKRP-P446L [4]", "value": 0.07}, {"measurement": "Kd", "setting": "GKRP-P446L [4]", "value": 242, "unit": "µM"}, {"measurement": "effect on the TF signal of GKRP-P446L", "setting": "GKRP-P446L [4]", "value": "increase"}, {"measurement": "H (Hill number)", "setting": "GKRP-WT [6]", "value": 3.6}, {"measurement": "ΔF (relative fluorescence change at 340 nm)", "setting": "GKRP-WT [6]", "value": 0.04}, {"measurement": "Kd", "setting": "GKRP-WT [6]", "value": 278, "unit": "µM"}, {"measurement": "effect on the TF signal of GKRP-WT", "setting": "GKRP-WT [6]", "value": "increase"}, {"measurement": "effect on the binding of GKRP-WT to GK", "setting": "GKRP-WT [7]", "value": "no significant effect"}, {"measurement": "effect on the binding of GKRP-P446L to GK", "setting": "GKRP-P446L [8]", "value": "increased the affinity of GKRP-P446L for GK"}]}
{"molecule": "B1", "values": [{"measurement": "ΔG(H2O) from urea denaturation curves", "setting": "[9]", "value": 1.56, "unit": "kcal/mol"}]}
{"molecule": "B2", "values": [{"measurement": "ΔG(H2O) from urea denaturation curves", "setting": "[9]", "value": 1.55, "unit": "kcal/mol"}]}
